ChEMBL document CHEMBL1132339, “Lipophilic 4-isoxazolyl-1,4-dihydropyridines: synthesis and structure-activity relationships” (J Med Chem, 1999)

Target: Voltage-dependent L-type calcium channel subunit alpha-1C (Rattus norvegicus, UniProt P22002)
Assay: Displacement of [3H](+)-PN200-110 binding from calcium channels of rat cardiac membranes.
Assay type: cell membranes, Membrane

Sequence of Voltage-dependent L-type calcium channel subunit alpha-1C (P22002 whole entry): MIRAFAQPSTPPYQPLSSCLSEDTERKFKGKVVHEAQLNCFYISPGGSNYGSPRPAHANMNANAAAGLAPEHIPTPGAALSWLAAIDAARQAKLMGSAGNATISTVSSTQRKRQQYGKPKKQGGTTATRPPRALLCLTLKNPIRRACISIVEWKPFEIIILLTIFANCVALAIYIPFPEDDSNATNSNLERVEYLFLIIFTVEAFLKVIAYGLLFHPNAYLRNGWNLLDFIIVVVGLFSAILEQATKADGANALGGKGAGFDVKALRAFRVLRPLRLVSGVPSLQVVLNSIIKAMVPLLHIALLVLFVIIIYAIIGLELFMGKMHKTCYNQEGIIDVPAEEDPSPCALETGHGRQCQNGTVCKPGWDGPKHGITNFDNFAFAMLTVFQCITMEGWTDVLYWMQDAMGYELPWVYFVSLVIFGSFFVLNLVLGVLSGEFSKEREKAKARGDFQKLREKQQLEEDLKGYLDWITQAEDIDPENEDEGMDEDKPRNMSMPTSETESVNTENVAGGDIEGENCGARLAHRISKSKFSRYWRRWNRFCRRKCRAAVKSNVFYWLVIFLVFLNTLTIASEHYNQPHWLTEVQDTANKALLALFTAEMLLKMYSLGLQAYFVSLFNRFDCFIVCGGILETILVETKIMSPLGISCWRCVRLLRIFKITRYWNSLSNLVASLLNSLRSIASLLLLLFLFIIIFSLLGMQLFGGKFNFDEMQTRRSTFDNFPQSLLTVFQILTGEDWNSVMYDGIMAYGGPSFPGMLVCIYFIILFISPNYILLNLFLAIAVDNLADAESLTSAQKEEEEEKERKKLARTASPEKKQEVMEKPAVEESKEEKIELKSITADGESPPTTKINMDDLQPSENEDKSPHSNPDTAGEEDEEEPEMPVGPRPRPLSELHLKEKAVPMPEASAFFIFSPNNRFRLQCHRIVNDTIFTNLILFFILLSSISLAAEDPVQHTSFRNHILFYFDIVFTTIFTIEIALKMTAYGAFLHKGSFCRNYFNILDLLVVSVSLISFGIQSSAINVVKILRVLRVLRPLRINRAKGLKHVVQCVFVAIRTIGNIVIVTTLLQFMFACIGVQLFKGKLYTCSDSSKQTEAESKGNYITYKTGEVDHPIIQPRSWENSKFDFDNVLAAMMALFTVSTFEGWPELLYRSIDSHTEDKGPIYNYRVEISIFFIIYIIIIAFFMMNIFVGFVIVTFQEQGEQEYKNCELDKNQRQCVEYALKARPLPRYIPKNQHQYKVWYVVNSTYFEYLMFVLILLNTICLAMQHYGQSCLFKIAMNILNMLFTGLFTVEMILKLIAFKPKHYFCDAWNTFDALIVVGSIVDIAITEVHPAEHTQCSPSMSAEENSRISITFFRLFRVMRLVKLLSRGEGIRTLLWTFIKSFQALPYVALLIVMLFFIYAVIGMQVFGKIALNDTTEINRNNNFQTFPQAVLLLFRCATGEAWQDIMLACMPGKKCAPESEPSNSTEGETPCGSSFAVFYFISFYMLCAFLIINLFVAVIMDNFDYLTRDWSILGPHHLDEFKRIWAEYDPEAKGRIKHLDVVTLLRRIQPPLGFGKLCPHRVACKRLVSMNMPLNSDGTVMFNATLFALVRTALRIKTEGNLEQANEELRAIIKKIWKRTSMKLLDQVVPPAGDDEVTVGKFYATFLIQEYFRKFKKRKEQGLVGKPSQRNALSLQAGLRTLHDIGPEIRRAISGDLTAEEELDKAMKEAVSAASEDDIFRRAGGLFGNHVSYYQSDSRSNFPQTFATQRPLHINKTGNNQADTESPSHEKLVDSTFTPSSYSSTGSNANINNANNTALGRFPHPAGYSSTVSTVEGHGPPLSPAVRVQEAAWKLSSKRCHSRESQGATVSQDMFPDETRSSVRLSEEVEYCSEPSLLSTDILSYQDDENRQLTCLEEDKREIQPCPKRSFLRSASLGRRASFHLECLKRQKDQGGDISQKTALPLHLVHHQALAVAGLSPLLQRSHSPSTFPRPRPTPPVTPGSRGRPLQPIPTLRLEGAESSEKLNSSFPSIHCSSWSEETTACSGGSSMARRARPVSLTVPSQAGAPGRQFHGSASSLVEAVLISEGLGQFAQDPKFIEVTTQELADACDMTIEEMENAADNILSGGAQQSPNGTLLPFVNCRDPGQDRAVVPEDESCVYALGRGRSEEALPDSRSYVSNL

Ki [nM]	Structure (SMILES)
2.16	CCOC(=O)C1=C(C)N=C(C)/C(=C(/O)OCC)C1c1c(C)noc1CCc1cccc2ccccc12 (stereo not drawn)
45.5	CCOC(=O)C1=C(C)N=C(C)/C(=C(/O)OCC)C1c1c(C)noc1CCc1ccccc1-c1ccccc1 (stereo not drawn)
10.7	CCOC(=O)C1=C(C)N=C(C)/C(=C(/O)OCC)C1c1c(C)noc1CCc1ccc2ccccc2c1 (stereo not drawn)
